Test results published in patent publication US20240261301A1, “COMPOSITION COMPRISING INOTODIOL FOR PREVENTION OR TREATMENT OF MUSCULAR DISEASE” (ANIMUSCURE INC., priority 2021, published 2024).

Key:
[1] = tested on: mouse model in which muscle damage is induced by CTX; conditions: CTX mice
Procedure: Ten 5-month-old C57BL/6 male mice were used as experimental animals.
However, each of the weights of the hindlimb muscle tissues, such as the tibialis anterior muscle (TA), extensor digitorum longus muscle (EDL), soleus muscle (Sol), and gastrocnemius muscle (Gas), of the experimental animals was measured.
Hematoxylin & eosin staining (H&E staining) was performed using the TA muscle isolated from the tissue of each of the experimental animals. Frozen sections fixed with 4% paraformaldehyde were stained with hematoxylin and stained with eosin for contrast staining, mounted, and observed under an optical microscope.
The relative mRNA expression levels were compared for each muscle type of Myh7 (MHCI), Myh2 (MHCIIa), Myh4 (MHCIIb), and Myh1 (MHCIIx).

C2C12 cells = assay: Myoblast differentiation of C2C12 cells (MHC immunostaining and immunoblot); type: cell-based, mouse
Procedure: The C2C12 cells were cultured in a general cell culture medium and a differentiation medium, respectively. DMEM supplemented with 15% fetal bovine serum was used as the normal cell culture medium (i.e., a growth medium (GM)), and DMEM supplemented with 2% horse serum was used as the differentiation medium (DM).
The C2C12 cells whose differentiation was induced in Example 1 were washed with 1× PBS, and then fixed with 3.7% paraformaldehyde at room temperature. Thereafter, a permeabilization buffer was added thereto, and reacted at room temperature. Unspecific antibody binding was inhibited by reacting with PBST (a blocking buffer) containing 3% BSA and PBS containing 0.1% Tween 20. A primary antibody against a myosin heavy chain (MHC) was diluted 1:500 in a blocking buffer, added, and reacted at room temperature. A secondary antibody diluted 1:5000 in a blocking buffer was added, and reacted at room temperature.
The C2C12 cells whose differentiation was induced in Example 1 were collected, lysed by adding a lysis buffer (20 mM Tris-HCl, pH 8.0, 150 mM NaCl, 1% Triton X, a proteinase inhibitor), and then the cell lysis sample was quantified. Thereafter, the same amount of protein was subjected to SDS-PAGE electrophoresis, and transferred to a PVDF membrane. […]

high-fat diet mice = assay: Exercise capacity in high-fat diet mouse model (treadmill, grip test); type: in vivo; conditions: high-fat diet-fed mice
Procedure: When inotodiol was administered to high-fat diet mice, the effects on muscle strength and exercise performance ability were determined. After inotodiol was administered to a high-fat diet-fed mouse model, the exercise duration and movement distance were measured through a treadmill experiment. […] As a result of the grip test, it was also confirmed that the high-fat diet mouse model had lower muscle strength than the mean muscle strength.

[2] = tested on: mouse model in which myoatrophy is induced by DEX; assay: Myotube atrophy in myoatrophy-induced (DEX) mouse model; type: in vivo; conditions: DEX (dexamethasone 20 mg/kg) model
Procedure: Experimental animals were grouped into 10 animals having a similar body weight, and dexamethasone was administered at a dose of 20 mg/kg to one group to induce […].
For the myoatrophy mouse model of Example 3, the effects of alleviating and recovering myotube atrophy were determined when inotodiol was administered.

ATPSA, MTCO1, and NDUF88 = assay: Mitochondrial activity markers (T-OxPHOS immunoblotting) in C2C12 myoblasts; type: cell-based, mouse; conditions: inotodiol at each concentration
Procedure: (§1) Cells were seeded into the cell culture medium (GM), and cultured for 24 hours. Thereafter, the differentiation medium (DM) was treated with DMSO and inotodiol (0.1, 0.5, 1.0, and 10 μM) at different concentrations, and differentiation was induced for 2 to 3 days.
To induce the differentiation of C2C12 myoblasts in the same manner as in Example 1 and check mitochondrial activity, the expression characteristics of a T-OxPHOS antibody mixed with ATPSA, MTCO1, and NDUF88 were confirmed through immunoblotting. For each of the proteins included in the T-OxPHOS antibody, ATPSA is a constituent protein of ATP synthase that contributes to the ATP synthesis in mitochondria, MTCO1 is associated with the oxidase activity of cytochrome-c, which is a component of the electron transport system in the inner membrane of mitochondria, and NDUF 88 encodes a subunit of NADH:ubiquinone oxidoreductase (Complex 1), which is the first enzyme complex in the mitochondrial electron transport system.

PGC-1α = PGC-1α mRNA expression by qRT-PCR in C2C12 cells; type: cell-based, mouse; conditions: differentiating C2C12, qRT-PCR, normalized to 18s rRNA, vs control
Procedure: as §1
The C2C12 cells whose differentiation was induced in Example 1 were lysed using an Easy-spin Total RNA Extraction kit, and chloroform was added thereto. Then, the C2C12 cells were centrifuged. After the supernatant was separated, the same volume of isopropanol was added and bound to the cells. After centrifugation, the cells were washed with 70% EtOH mixed with DEPC water, and the concentration of RNA was quantified by adding 20 to 50 μL of a DEPC solution. RNA was reverse-transcribed using a PrimeScript cDNA synthesis kit to synthesize cDNA. Then, the gene expression was analyzed by qRT-PCR in a real-time PCR system using SYBR Premix EX Taq. Fold changes in gene expression were normalized against the expression of ribosomal gene 18s rRNA.

muscle fibrosis = assay: Muscle fibrosis in CTX muscle damage mouse model; type: in vivo; conditions: then inotodiol
muscle stem cells = assay: Muscle stem cell proliferation (BrdU analysis) after CTX muscle damage; type: in vivo, mouse
Procedure: To induce muscle damage, CTX was injected into the mice to which inotodiol was administered once a day for 7 days. Then, it was determined through BrdU analysis whether or not the proliferation of muscle stem cells was enhanced (FIG. 10).

normal mice = assay: Long-term (2 months) inotodiol administration to normal mice; type: in vivo, mouse
Procedure: For normal mice in which the muscle damage or muscle atrophy was not induced, an experiment was conducted to determine whether there was an effect of increasing muscle mass and muscle strength when inotodiol was administered. For the mice to which inotodiol was administered for 2 months, an experiment was conducted to measure a change in muscle mass and muscle strength of hindlimb muscles after the administration of inotodiol (a grip test).

PGC-1α promoter = assay: PGC-1α reporter (luciferase) assay; type: cell-based, mouse
Procedure: Immediately after cells were seeded at a density of 1×10^4 cells/well in a 96-well culture plate, the cells were transfected by treating the cells with PGC-1α (DNA) and a plasmid at a ratio of [150 ng/10 μL]+[0.3 μL/10 μL] per well. […] After 24 hours of drug treatment, the cells were lysed in 30 μL of a passive lysis buffer (Promega) per well, and the dissolved cell solution was transferred to a plate for luminometer reading. Then, an equal amount of luciferin, which is a substrate of luciferase, was subjected to an enzymatic reaction to determine the degree of luminescence. The measured values were standardized for each well and plate, and expressed as a relative ratio using the measured values in the wells treated with DMSO, which is a solvent of the compound, as the control. The expression level of luciferase in the PGC-1α reporter cell line depends on the stimulation received by a PGC-1α promoter. That is, if the compound is a PGC-1α expression inducer, it stimulates the PGC-1a promoter to increase the expression of luciferase, and if the compound is a PGC-1α expression inhibitor, luciferase expression decreases.

[3] = 300 μg/kg oral, 21 days after CTX
[4] = inotodiol once a day for 7 days, then CTX
[5] = 2 months administration, vs control

## CC(C)=CC[C@@H](O)[C@@H](C)[C@H]1CC[C@@]2(C)C3=C(CC[C@]12C)[C@@]1(C)CC[C@H](O)C(C)(C)C1CC3 (some centres unmarked) [inotodiol]
[1]; [3]
  increase in muscle mass, extensor digitorum longus muscle (EDL), vs control: 18.9%
  increase in muscle mass, gastrocnemius muscle (Gas), vs control: 9.5%
  increase in muscle mass, soleus muscle (Sol), vs control: 5.2%
  increase in muscle mass, tibialis anterior muscle (TA), vs control: 16.0%
[1]; 21 days after muscle damage
  expression of Myh2 (MHCIIa): tended to greatly increase
  relative mRNA expression levels of muscle fiber types Myh7, Myh2, Myh4, Myh1: no significant difference
[1]; day 21 after induction of muscle damage, vs control
  blood glucose: blood glucose-lowering effect was confirmed
[1]; day 21 after muscle damage, grip strength test
  increase in grip strength vs control: approximately 6.8%
[1]; inotodiol 300 μg/kg oral, 21 days after CTX
  change in body weight: no change in body weight was observed
[1]; laminin staining
  increase in muscle fiber cross-sectional area (CSA) of TA muscle vs control: 89.4%
[1]; vs control
  muscle regeneration (H&E staining of TA muscle): significant muscle regeneration effect
C2C12 cells; C2C12, inotodiol 0.1, 0.5, 1.0, 10 μM, immunostaining on day 2 of differentiation
  formation of multinucleated myotubes: increased in a concentration-dependent manner
C2C12 cells; C2C12, inotodiol at different concentrations, immunoblot, vs DMSO-treated control
  expression level of MHC (differentiation marker): increased in a concentration-dependent manner
high-fat diet mice
  exercise capacity (exercise duration and movement distance, treadmill): recovered exercise capacity to the level of the normal control
  muscle strength (grip test): muscle strength was improved
[2]
  cross-sectional area of myotubes: restored to the same level as that of the normal group
  size of muscles and muscle fibers: increased
ATPSA, MTCO1, and NDUF88
  expression level of mitochondrial proteins (ATPSA, MTCO1, NDUF88): increased in proportion to the concentration of inotodiol
PGC-1α
  mRNA expression for PGC-1α: significantly increased compared to the control
Muscle fibrosis
  area of the muscle tissue in which fibrosis progressed: reduced
  muscle fibrosis in muscle tissue: fibrosis was ameliorated
Muscle stem cells; CTX muscle damage
  expression of genes involved in muscle growth: effect of enhancing the expression of genes involved in muscle growth was confirmed
  relative mRNA expression levels of genes involved in the cell cycle: increased
Muscle stem cells; [4]
  expression level of BrdU in muscle tissues: increased
  expression levels of Pax7 and Ki67 and expression ratio of Ki67 to Pax7: increased
Normal mice; [5]
  hindlimb muscle mass: increased
  muscle strength (grip test): also increased
Normal mice; long-term administration
  weight of fat relative to weight gain: increased relatively less
  weight-to-muscle ratio: higher than that of the non-administered group
Normal mice; long-term administration, vs control
  expression levels of PGC-1α and mitochondrial-related genes in muscle: increased compared to the control
PGC-1α promoter; inotodiol 0.1, 0.5, 1.0 μM, 24 h, relative to DMSO
  luciferase activity for PGC-1α: increased in an inotodiol concentration-dependent manner
PGC-1α promoter; vs 0.5 mM AICAR positive control
  luciferase activity for PGC-1α compared with positive control: higher than that of 0.5 mM AICAR
